In US11730720B2, “ALK5 inhibitors” (THERAVANCE BIOPHARMA R&D IP, LLC, priority 2018, dated 2023):

Legend:
[1] = test system: TGF-β-stimulated SMAD3 phosphorylation in BEAS-2B cells; assay: Cellular ALK5 potency assay, inhibition of TGF-β stimulated pSMAD3 formation in BEAS-2B cells; assay type: cell-based; settings: Homo sapiens, inhibition of TGF-β (10 ng/mL) stimulated pSMAD3 formation, 1 hour compound incubation, read-out: BEAS2B pIC50 (converted)
Summary of the method: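 Phospho-SMAD3 was quantified by AlphaLISA in lysates of human lung epithelial BEAS-2B cells. Compound was added 1 h (37 °C, HEPES/BSA-supplemented HBSS) before a 30 min challenge with 10 ng/mL TGF-β. Values are pIC50 relative to stimulated cells without compound.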

[2] = molecular target: T1, recombinant human ALK5 (TGF-βR1) protein (Homo sapiens, UniProt P36897); assay: Biochemical ALK5 (TGF-βR1) assay to measure pKi (LANCE Ultra ULight kinase assay); settings: apparent pKi, converted from pIC50 using the Cheng-Prusoff equation
T1 construct: purchased Life Technologies PR9075A
T1 sequence (P36897 34-503): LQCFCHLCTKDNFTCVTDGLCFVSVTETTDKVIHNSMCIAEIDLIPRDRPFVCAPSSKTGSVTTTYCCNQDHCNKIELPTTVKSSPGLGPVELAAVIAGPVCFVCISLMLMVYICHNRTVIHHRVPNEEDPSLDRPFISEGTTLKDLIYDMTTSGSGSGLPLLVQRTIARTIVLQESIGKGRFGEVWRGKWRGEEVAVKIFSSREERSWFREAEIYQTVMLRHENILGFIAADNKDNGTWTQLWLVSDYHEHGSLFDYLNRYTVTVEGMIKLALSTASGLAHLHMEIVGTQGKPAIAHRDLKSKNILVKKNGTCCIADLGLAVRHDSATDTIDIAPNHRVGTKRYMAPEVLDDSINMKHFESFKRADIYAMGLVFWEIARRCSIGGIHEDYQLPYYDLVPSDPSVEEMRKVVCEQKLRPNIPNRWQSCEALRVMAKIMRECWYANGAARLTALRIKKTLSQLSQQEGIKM
Summary of the method: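 TR-FRET kinase format: compound dose range 10 μM–25 pM equilibrated 60 min with human ALK5 and ULight-labelled topoisomerase 2α peptide in HEPES/MgCl2 buffer pH 7.5 with DTT. Reaction started with ATP (125 μM stock, 5× final), 60 min at 37° C, stopped with EDTA/Eu-anti-phospho antibody; pKi derived from pIC50 via Cheng-Prusoff.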

| Ki [2] [nM] | Compound | IC50 [1] [nM] |
| --- | --- | --- |
| ≤ 0.0316 | Fc1ccc(Cl)cc1-c1n[nH]cc1-c1ccc2ncc(N3CCn4nc(C5=CCNC5)nc4C3)cc2n1 [Compound 1-85, 2-(3-(5-chloro-2-fluorophenyl)-1H-pyrazol-4-yl)-7-(2-(2,5-dihydro-1H-pyrrol-3-yl)-5,6-dihydro-[1,2,4]triazolo[1,5-a]pyrazin-7(8H)-yl)-1,5-naphthyridine] | 25.1 to 158 |
| 0.0398 to 0.316 | CN(C)C1CCN(c2cnc3ccc(-c4c[nH]nc4-c4cc(Cl)c(F)cc4F)nc3c2)CC1 [Compound 6-18, 1-[6-[3-(5-chloro-2,4-difluoro-phenyl)-1H-pyrazol-4-yl]-1,5-naphthyridin-3-yl]-N,N-dimethyl-piperidin-4-amine] | 25.1 to 158 |
| 0.0398 to 0.316 | CN1CCN(C2CCN(c3cnc4ccc(-c5c(-c6cc(Cl)ccc6F)nc6ccccn56)nc4c3)CC2)CC1 [Compound 3-5, 2-[2-(5-chloro-2-fluoro-phenyl)imidazo[1,2-a]pyridin-3-yl]-7-[4-(4-methylpiperazin-1-yl)-1-piperidyl]-1,5-naphthyridine] | 200 to 1260 |
| 3.98 to 31.6 | CC(C)N1CCN(CCNc2cnc3ccc(-c4c[nH]nc4-c4ccc(F)cc4F)nc3c2)CC1 [Compound 10-2, 6-(3-(2,4-difluorophenyl)-1H-pyrazol-4-yl)-N-(2-(4-isopropylpiperazin-1-yl)ethyl)-1,5-naphthyridin-3-amine] | 25.1 to 158 |
| 0.0398 to 0.316 | CN(CC1CNC1)c1cnc2ccc(-c3nc[nH]c3-c3cc(Cl)c(F)cc3F)nc2c1 [Compound 7-6, N-(azetidin-3-ylmethyl)-6-[5-(5-chloro-2,4-difluoro-phenyl)-1H-imidazol-4-yl]-N-methyl-1,5-naphthyridin-3-amine] | 25.1 to 158 |
| ≤ 0.0316 | CCOC(=O)CNCCn1cc(-c2cnc3ccc(-c4c[nH]nc4-c4cc(Cl)ccc4F)nc3c2)cn1 [Compound 1-127, ethyl 2-[2-[4-[6-[3-(5-chloro-2-fluoro-phenyl)-1H-pyrazol-4-yl]-1,5-naphthyridin-3-yl]pyrazol-1-yl]ethylamino]acetate] | 200 to 1260 |
| 0.398 to 3.16 | Fc1cc(F)c(-c2n[nH]cc2-c2ccc3ncc(NC[C@H]4CCCCN4)cc3n2)cc1Cl [Compound 6-11, 6-[3-(5-chloro-2,4-difluoro-phenyl)-1H-pyrazol-4-yl]-N-[[(2R)-2-piperidyl]methyl]-1,5-naphthyridin-3-amine] | 25.1 to 158 |
| 0.0398 to 0.316 | Fc1cc(F)c(-c2n[nH]cc2-c2ccc3ncc(-c4cnc5n4CCN5)cc3n2)cc1Cl [Compound 6-54, 2-[3-(5-chloro-2,4-difluoro-phenyl)-1H-pyrazol-4-yl]-7-(6,7-dihydro-5H-imidazo[1,2-a]imidazol-3-yl)-1,5-naphthyridine] | 25.1 to 158 |
| ≤ 0.0316 | CN(C)CCN1CCN(c2cnc3ccc(-c4c[nH]nc4-c4cc(Cl)ccc4F)nc3c2)CC1 [Compound 1-71, 2-[4-[6-[3-(5-chloro-2-fluoro-phenyl)-1H-pyrazol-4-yl]-1,5-naphthyridin-3-yl]piperazin-1-yl]-N,N-dimethyl-ethanamine] | ≤ 20 |
| 0.0398 to 0.316 | COC(=O)CC1CNCCN1CCNc1cnc2ccc(-c3nc[nH]c3-c3cc(Cl)ccc3F)nc2c1 (centres unmarked) [Compound 2-35, methyl 2-[1-[2-[[6-[5-(5-chloro-2-fluoro-phenyl)-1H-imidazol-4-yl]-1,5-naphthyridin-3-yl]amino]ethyl]piperazin-2-yl]acetate] | 25.1 to 158 |
| 3.98 to 31.6 | CC(C)N1CCN(CCNc2cnc3ccc(-c4nc[nH]c4-c4ccc(F)c(F)c4)cc3c2)CC1 [Compound 23-4, 6-(5-(3,4-difluorophenyl)-1H-imidazol-4-yl)-N-(2-(4-isopropylpiperazin-1-yl)ethyl)quinolin-3-amine] | 25.1 to 158 |
| 0.398 to 3.16 | Fc1ccc(Cl)cc1-c1n[nH]cc1-c1ccc2ncc(N[C@@H]3CCNC3)cc2n1 [Compound 1-19, 6-[3-(5-chloro-2-fluoro-phenyl)-1H-pyrazol-4-yl]-N-[(3R)-pyrrolidin-3-yl]-1,5-naphthyridin-3-amine] | 25.1 to 158 |
| 0.0398 to 0.316 | Cn1cccc(-c2cnc3ccc(-c4c[nH]nc4-c4cc(Cl)ccc4F)nc3c2)c1=O [Compound 1-90, 3-(6-(3-(5-chloro-2-fluorophenyl)-112-pyrazol-4-yl)-1,5-naphthyridin-3-yl)-1-methylpyridin-2(1H)-one] | ≤ 20 |
| 0.398 to 3.16 | COCc1cccc(-c2n[nH]cc2-c2ccc3ncc(C4=CCC(N)CC4)cc3n2)c1 (centres unmarked) [Compound 14-12, 4-[6-[3-[3-(methoxymethyl)phenyl]-1H-pyrazol-4-yl]-1,5-naphthyridin-3-yl]cyclohex-3-en-1-amine] | 25.1 to 158 |
| ≤ 0.0316 | CNCCn1cc(-c2cnc3ccc(-c4c[nH]nc4-c4ccc(F)c(F)c4)nc3c2)cn1 [Compound 8-12, 2-(4-(6-(3-(3,4-difluorophenyl)-1H-pyrazol-4-yl)-1,5-naphthyridin-3-yl)-1H-pyrazol-1-yl)-N-methylethan-1-amine] | ≤ 20 |
| 0.0398 to 0.316 | CC(CO)N1CCN(CCNc2cnc3ccc(-c4c[nH]nc4-c4cc(Cl)c(F)cc4F)nc3c2)CC1 (centres unmarked) [Compound 6-72, 2-[4-[2-[[6-[3-(5-chloro-2,4-difluoro-phenyl)-1H-pyrazol-4-yl]-1,5-naphthyridin-3-yl]amino]ethyl]piperazin-1-yl]propan-1-ol] | 25.1 to 158 |
| 0.0398 to 0.316 | C[C@@H]1CN(CCNc2cnc3ccc(-c4nc[nH]c4-c4cc(Cl)ccc4F)nc3c2)C[C@H](C)N1 [Compound 2-29, 6-(5-(5-chloro-2-fluorophenyl)-1H-imidazol-4-yl)-N-(2-((3S,5R)-3,5-dimethylpiperazin-1-yl)ethyl)-1,5-naphthyridin-3-amine] | 25.1 to 158 |
| 0.0398 to 0.316 | CN(C)C1CCN(c2cnc3ccc(-c4nc[nH]c4-c4cc(Cl)ccc4F)nc3c2)C1 (racemic) [Compound 2-11, rac-(3S)-1-(6-[5-(5-chloro-2-fluoro-phenyl)-1H-imidazol-4-yl]-1,5-naphthyridin-3-yl]-N,N-dimethyl-pyrrolidin-3-amine] | ≤ 20 |
| 0.0398 to 0.316 | NCCn1cc(-c2cnc3ccc(-c4nc[nH]c4-c4cc(Cl)c(F)cc4F)cc3c2)cn1 [Compound 22-3, 2-[4-[6-[5-(5-chloro-2,4-difluoro-phenyl)-1H-imidazol-4-yl]-3-quinolyl]pyrazol-1-yl]ethanamine] | 25.1 to 158 |
| 0.398 to 3.16 | Fc1ccc(Cl)cc1-c1[nH]cnc1-c1ccc2ncc(NC[C@@H]3CCCN3)cc2n1 [Compound 2-30, 6-[5-(5-chloro-2-fluoro-phenyl)-1H-imidazol-4-yl]-N-[[(2S)-pyrrolidin-2-yl]methyl]-1,5-naphthyridin-3-amine] | 200 to 1260 |
| 0.398 to 3.16 | Fc1ccc(Cl)cc1-c1[nH]cnc1-c1ccc2ncc(-c3cnc4n3CCNC4)cc2c1 [Compound 17-10, 6-[5-(5-chloro-2-fluoro-phenyl)-1H-imidazol-4-yl]-3-(5,6,7,8-tetrahydroimidazo[1,2-a]pyrazin-3-yl)quinoline] | 25.1 to 158 |
| 0.0398 to 0.316 | Fc1cc(F)c(-c2n[nH]cc2-c2ccc3ncc(-c4nnn5c4NCC5)cc3n2)cc1Cl [Compound 6-58, 2-[3-(5-chloro-2,4-difluoro-phenyl)-1H-pyrazol-4-yl]-7-(5,6-dihydro-4H-imidazo[1,2-c]triazol-3-yl)-1,5-naphthyridine] | 25.1 to 158 |
